The values that follow come from patent US20260242351A1, “LZK INHIBITORS” (Uereka Biosciences, Inc., priority 2023, published 2026).

In general, IC50 refers to the midpoint of a concentration-inhibition curve. Low readings indicate higher potency, high ones lower potency.

Counter-ions that a name gives are not always drawn. A value given as a limit tells only on which side of the number the result lay.

Assay [1] concerns the target T1, DLK (Homo sapiens, UniProt Q12852).
T1 construct: made in house; host or cells: HEK-293 cells
T1 sequence (Q12852 1-859): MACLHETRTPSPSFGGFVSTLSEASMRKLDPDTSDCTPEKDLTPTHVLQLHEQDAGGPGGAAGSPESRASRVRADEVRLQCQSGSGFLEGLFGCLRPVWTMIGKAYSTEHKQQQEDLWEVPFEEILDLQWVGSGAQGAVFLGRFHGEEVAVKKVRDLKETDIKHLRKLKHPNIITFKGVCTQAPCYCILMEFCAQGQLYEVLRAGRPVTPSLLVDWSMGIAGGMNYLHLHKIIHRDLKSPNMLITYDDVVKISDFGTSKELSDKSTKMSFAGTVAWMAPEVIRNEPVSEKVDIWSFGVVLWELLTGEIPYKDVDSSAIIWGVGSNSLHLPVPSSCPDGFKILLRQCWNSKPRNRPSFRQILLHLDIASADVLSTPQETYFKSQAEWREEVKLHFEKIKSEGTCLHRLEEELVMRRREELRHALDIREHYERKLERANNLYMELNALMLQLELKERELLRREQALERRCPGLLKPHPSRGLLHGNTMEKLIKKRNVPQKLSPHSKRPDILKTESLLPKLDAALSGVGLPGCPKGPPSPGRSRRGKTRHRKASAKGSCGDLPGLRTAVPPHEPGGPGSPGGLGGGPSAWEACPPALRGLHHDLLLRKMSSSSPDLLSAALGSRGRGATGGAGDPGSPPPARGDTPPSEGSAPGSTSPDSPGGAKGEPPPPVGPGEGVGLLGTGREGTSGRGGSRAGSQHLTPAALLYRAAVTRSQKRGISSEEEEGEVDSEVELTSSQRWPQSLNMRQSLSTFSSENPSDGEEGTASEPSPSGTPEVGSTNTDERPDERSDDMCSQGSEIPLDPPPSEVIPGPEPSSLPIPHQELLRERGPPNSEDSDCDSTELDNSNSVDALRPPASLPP
Briefly: LZK and DLK Inhibition Assay (competition binding to liganded affinity beads, qPCR readout): DLK. The note with it: kinase produced in HEK-293 cells, 11-point 3-fold dilution series. On the procedure: (§1) The kinases were produced in HEK-293 cells and subsequently tagged with DNA for qPCR detection. Streptavidin-coated magnetic beads were treated with biotinylated small molecule ligands for 30 minutes at room temperature to generate affinity resins for the kinase assays. The liganded beads were blocked with excess biotin and washed with blocking buffer (SeaBlock (Pierce), 1% BSA, 0.05% Tween 20, 1 mM DTT) to remove unbound ligand and to reduce non-specific binding. Binding reactions were assembled by combining LZK and DLK kinases, liganded affinity beads, and test compounds in 1× binding buffer (20% SeaBlock, 0.17×PBS, 0.05% Tween 20, 6 mM DTT). Test compounds were prepared as 111× stocks in 100% DMSO. Kds were determined using an 11-point 3-fold compound dilution series with three DMSO control points. All compounds for Kd measurements are distributed by acoustic transfer (non-contact dispensing) in 100% DMSO. The compounds were then diluted directly into the assays such that the final concentration of DMSO was 0.9%. All reactions performed in polypropylene 384-well plate. Each was a final volume of 0.02 mL. The assay plates were incubated at room temperature with shaking for 1 hour and the affinity beads were washed with wash buffer (lx PBS, 0.05% Tween 20). The beads were then re-suspended in elution buffer (1×PBS, 0.05% Tween 20, 0.5 μM nonbiotinylated affinity ligand) and incubated at room temperature with shaking for 30 minutes. The kinase concentration in the eluates was measured by qPCR.
On the technique in general: Quantitative PCR measures a nucleic acid by following its amplification.

In assay [2] the target is T2, LZK (Homo sapiens, UniProt O43283).
T2 construct: made in house; host or cells: HEK-293 cells
T2 sequence (O43283 1-966): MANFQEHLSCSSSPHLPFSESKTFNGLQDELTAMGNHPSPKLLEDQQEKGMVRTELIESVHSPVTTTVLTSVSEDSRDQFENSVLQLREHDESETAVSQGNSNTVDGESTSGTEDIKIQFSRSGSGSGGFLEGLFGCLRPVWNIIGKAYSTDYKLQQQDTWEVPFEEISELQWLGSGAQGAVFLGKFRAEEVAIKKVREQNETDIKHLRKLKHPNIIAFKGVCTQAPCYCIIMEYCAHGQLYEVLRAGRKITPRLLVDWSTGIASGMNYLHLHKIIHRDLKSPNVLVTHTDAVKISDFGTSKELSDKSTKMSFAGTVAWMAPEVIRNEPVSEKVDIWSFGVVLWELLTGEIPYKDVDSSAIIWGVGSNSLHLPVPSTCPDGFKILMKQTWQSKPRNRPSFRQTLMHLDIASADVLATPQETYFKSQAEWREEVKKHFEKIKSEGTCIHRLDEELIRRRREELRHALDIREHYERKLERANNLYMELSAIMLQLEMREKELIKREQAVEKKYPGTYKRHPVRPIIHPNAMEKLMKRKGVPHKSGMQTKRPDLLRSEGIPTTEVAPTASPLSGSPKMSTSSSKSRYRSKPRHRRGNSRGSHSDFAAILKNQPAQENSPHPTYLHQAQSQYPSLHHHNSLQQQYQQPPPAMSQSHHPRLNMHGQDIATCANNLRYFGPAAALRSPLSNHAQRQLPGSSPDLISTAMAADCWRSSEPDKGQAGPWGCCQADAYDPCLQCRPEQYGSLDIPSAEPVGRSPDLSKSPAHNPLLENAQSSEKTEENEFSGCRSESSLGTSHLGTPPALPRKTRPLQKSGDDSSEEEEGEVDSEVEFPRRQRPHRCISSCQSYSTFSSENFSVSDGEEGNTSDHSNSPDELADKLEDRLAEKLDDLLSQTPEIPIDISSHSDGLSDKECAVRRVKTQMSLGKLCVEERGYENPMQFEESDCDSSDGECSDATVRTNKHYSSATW
Briefly: LZK and DLK Inhibition Assay (competition binding to liganded affinity beads, qPCR readout): LZK. The conditions noted are these: kinase produced in HEK-293 cells, 11-point 3-fold dilution series. On the procedure:
as §1

Take `Fc1c(C2CCN(CC3CC3)CC2)cc(Nc2cnc(C3CC3)cn2)nc1N1CC2CC2C1` (stereo not shown) [Compound 1, N-(6-(3-Azabicyclo[3.1.0]hexan-3-yl)-4-(1-(cyclopropylmethyl)piperidin-4-yl)-5-fluoropyridin-2-yl)-5-cyclopropylpyrazin-2-amine]: the IC50 in assay [1] and in assay [2] was at most 0.1 µM throughout.

For the molecule `Fc1c(C2CCN(CC3CC3)CC2)cc(N2CC3CC3C2)nc1Nc1cnc(C2CC2)cn1` (stereo not shown) [Compound 2, N-(6-(3-Azabicyclo[3.1.0]hexan-3-yl)-4-(1-(cyclopropylmethyl)piperidin-4-yl)-3-fluoropyridin-2-yl)-5-cyclopropylpyrazin-2-amine], the values for the half-inhibitory concentration (IC50) in assay [1] and in assay [2] were at most 0.1 µM and 0.1 to 1 µM, respectively.

Turning to `Fc1c(N2CCNCC2)cc(Nc2ccc(C(F)F)cn2)nc1N1CCOCC1` [Compound 3, N-(5-(Difluoromethyl)pyridin-2-yl)-5-fluoro-6-morpholino-4-(piperazin-1-yl)pyridin-2-amine di-TFA salt], the IC50 in assay [1] and in assay [2] was 0.1 to 1 µM in each case.

Regarding `Fc1c(N2CC3CC2CN3)cc(Nc2ccc(C(F)F)cn2)nc1N1CCOCC1` (stereo not shown) [Compound 4, 4-(2,5-Diazabicyclo[2.2.1]heptan-2-yl)-N-(5-(difluoromethyl)pyridin-2-yl)-5-fluoro-6-morpholinopyridin-2-amine di-TFA salt], the IC50 in assay [1] and in assay [2] was 1 to 10 µM in each case.

On to `Fc1c(N2CCNCC2)cc(Nc2ccc(C(F)(F)F)cn2)nc1N1CCOCC1` [Compound 5, 5-Fluoro-6-morpholino-4-(piperazin-1-yl)-N-(5-(trifluoromethyl)pyridin-2-yl)pyridin-2-amine], for which the IC50 fell in the range of 1 to 10 µM in assay [1] and 0.1 to 1 µM in assay [2].

In the case of `Fc1c(N2CC3CC2CN3)cc(Nc2ccc(C(F)(F)F)cn2)nc1N1CCOCC1` (stereo not shown) [Compound 6, 4-(2,5-Diazabicyclo[2.2.1]heptan-2-yl)-5-fluoro-6-morpholino-N-(5-(trifluoromethyl)pyridin-2-yl)pyridin-2-amine], the IC50 in assay [1] and in assay [2] was 1 to 10 µM throughout.

In the case of `Clc1c(C2CCN(CC3CC3)CC2)cc(Nc2cnc(C3CC3)cn2)nc1N1CC2CC2C1` (stereo not shown) [Compound 7, N-(6-(3-Azabicyclo[3.1.0]hexan-3-yl)-5-chloro-4-(1-(cyclopropylmethyl)piperidin-4-yl)pyridin-2-yl)-5-cyclopropylpyrazin-2-amine TFA salt], the IC50 in assay [1] and in assay [2] was 1 to 10 µM in each case.

With `N#Cc1c(C2CCN(CC3CC3)CC2)cc(Nc2cnc(C3CC3)cn2)nc1N1CC2CC2C1` (stereo not shown) [Compound 8, 2-(3-Azabicyclo[3.1.0]hexan-3-yl)-4-(1-(cyclopropylmethyl)piperidin-4-yl)-6-((5-cyclopropylpyrazin-2-yl)amino)nicotinonitrile formic acid salt], the IC50 in assay [1] and in assay [2] was at most 0.1 µM each time.

With `Nc1c(C2CCN(CC3CC3)CC2)cc(Nc2cnc(C3CC3)cn2)nc1N1CC2CC2C1` (stereo not shown) [Compound 9, 6-(3-azabicyclo[3.1.0]hexan-3-yl)-4-(1-(cyclopropylmethyl)piperidin-4-yl)-N2-(5-cyclopropylpyrazin-2-yl)pyridine-2,5-diamine 2,2,2-trifluoroacetate], the IC50 in assay [1] and in assay [2] was at most 0.1 µM in each case.

Consider `Fc1c(N2CCNCC2)cc(Nc2cnc(C3CC3)cn2)nc1N1CCOCC1` [Compound 10, 5-Cyclopropyl-N-(5-fluoro-6-morpholino-4-(piperazin-1-yl)pyridin-2-yl)pyrazin-2-amine], for which, in assay [2], the IC50 was at most 0.1 µM.
